Measurements taken from patent US4482568A, “Inhibition of alcohol metabolism by tetramethylene sulfoxides” (University of Iowa Research Foundation, priority 1983, dated 1984).
Read-outs that look alike come from different tables or passages of the source.

Legend:
[1] = tested on: alcohol dehydrogenases in the liver; settings: background, cited from earlier work
[2] = target: T1, horse liver alcohol dehydrogenase (Equus caballus, UniProt P00327); experiment: Inhibition of horse liver alcohol dehydrogenase in vitro (Kii against varied ethanol); format: biochemical
T1 construct: Crystallized horse liver alcohol dehydrogenase; from tissue; host or cells: horse liver
Procedure: (§1) ^a The Kii values (intercept) inhibition constants in micromolar
(§2) units as determined against varied concentrations of ethanol as substrate
(§3) Purified or partially purified enzyme was tested under approximately
(§4) physiological conditions, pH 7.3 and 37° C., except that the
(§5) crystallized horse enzyme was tested at pH 7 and 25° C.
(§6) Crystallized horse liver alcohol dehydrogenase was freed from endogenous ethanol by filtration though a column of Sephadex G-50. Inhibition studies were carried out with varied concentrations of ethanol (0.4-2 mM) at 1 mM NAD+ in 46 mM sodium phosphate buffer, pH 7, at 25° C. In each experiment, at least three different concentrations of inhibitor were tested and 32 initial velocities were determined (as in FIGS. 2A and 3A of the Journal article). Data for noncompetitive inhibition were fitted to the equation v=VS/[Km (1+[…])+S(1+I/Kii)], whereas the equation for uncompetitive inhibition has no Kis term, and competitive inhibition has no Kii term. The equation giving the lowest standard errors and residual variance was concluded to give the best fit. Rat liver alcohol dehydrogenase was partially purified, and inhibition studies were performed as with the horse liver enzyme, except that the buffer was 83 mM potassium phosphate, pH 7.3, and 40 mM KCl, total ionic strength=0.25, and the temperature was 37.8° C. The concentration of NAD was 0.5 mM. These conditions are thought to resemble those found in vivo. The concentrations of ethanol were 0.4, 0.6, 1, and 2 mM, and the inhibitors were varied between 0 and 0.6 mM.

ethanol metabolism [3] = experiment: Blood alcohol concentration in rats after ethanol and inhibitor (FIG. 1); format: in vivo; settings: 19.6 mmol/kg ethanol, 1 mmol/kg inhibitor
Procedure: In order to compare dimethyl sulfoxide and its potential as an inhibitor with the compounds of this invention, rats were given dosages of 19.6 millimoles per kilogram of body weight of alcohol and/or injections of one millimole per kilogram of body weight of the inhibitors, either dimethyl sulfoxide, tetramethylene sulfoxide, 3-methyltetramethylene sulfoxide, or 3-butyltetramethylene sulfoxide. After injection, the alcohol concentration in the blood was measured. The drawing reports the alcohol concentration. The line designated by the numeral 12 represents ethanol without any inhibitor. The line designated by 11 represents ethanol with dimethyl sulfoxide. The line represented by the numeral 13 represents ethanol with tetramethylene sulfoxide.

[4] = tested on: ethanol induced loss of righting reflex; settings: mice; Sharkawi 1979; cited from earlier work
[5] = target: Liver Alcohol Dehydrogenase (Monkey); experiment: Inhibition of monkey liver alcohol dehydrogenase in vitro (Kii against varied ethanol); format: biochemical; settings: purified or partially purified enzyme, pH 7.3, 37° C., ethanol varied as substrate
Procedure: as §1, §2, §3, §4, §5

[6] = target: T2, Rat liver alcohol dehydrogenase (Rattus norvegicus, UniProt P06757); experiment: Inhibition of rat liver alcohol dehydrogenase in vitro (Kii against varied ethanol); format: biochemical
T2 construct: Rat liver alcohol dehydrogenase was partially purified; from tissue; host or cells: rat liver
Procedure: as §1, §2, §3, §4, §5, §6

ethanol metabolism [7] = experiment: Ethanol (elimination rate) metabolism in rats; format: in vivo, male Sprague-Dawley rats; settings: for Ethanol (Elimination Rate) Metabolism In Rats, % Inhibition: 19.6 mmoles of ethanol/kg i.p. and 1 mmole/kg inhibitor, maximum obtainable about 85%
Procedure: ^b The Kii (intercept inhibition constant, micromoles/kg) was
determined with varied concentrations of inhibitor and ethanol by
determination of blood alohol concentrations. For a survey of inhibitory
potency, rats were given 19.6 mmoles of ethanol/kg body wt., i.p., and 1.
mmole of the inhibitor, and the percentage inhibition of ethanol
elimination was calculated with reference to an animal given no inhibitor
The maximum "inhibition" that can be obtained is about 85%, since some
ethanol is eliminated by excretion, rather than by oxidation by alcohol
^c The value was estimated from results from rats given 19.6 mmoles o
ethanol/kg and 0.1, 0.4, and 1.0 mmoles/kg of the inhibitor.
The precise experimental details for assembling the data shown in the above table are reported in our Journal of Medicinal Chemistry article, 1983, Vol. 26, No. 6, at page 921. The entire article is incorporated herein by reference. In particular, for the rat studies, inhibition of ethanol metabolism by the active compounds of this invention were studied in vitro in liver alcohol dehydrogenase from horses, monkeys and rats. The in vivo study of ethanol metabolism in rats, and in particular its inhibition was studied with male Sprague-Dawley rats, which were given intraperitoneal injections of active compounds (0.1 molar) in saline at doses of 0.0, 0.25 and 0.5 or 1.0 mmole/kg of body weight. Ten minutes later, ethanol was injected intraperitoneally at a dose of 19.6 mmoles/kg of body weight. Blood samples were taken at intervals, timed from the ethanol injection, and analyzed by gas chromatography.

[8] = tested on: isolated liver alcohol dehydrogenases; experiment: Inhibition of ethanol oxidation by isolated liver alcohol dehydrogenases (general statements); format: biochemical
Procedure: as §6

[9] = crystallized horse enzyme, pH 7, 25° C., ethanol varied as substrate, read-out: Liver Alcohol Dehydrogenase, In Vitro, Kii, Horse
[10] = partially purified enzyme, pH 7.3, 37° C., ethanol varied as substrate, read-out: Liver Alcohol Dehydrogenase, In Vitro, Kii, Rat

T2 sequence (P06757 2-376 limits assumed): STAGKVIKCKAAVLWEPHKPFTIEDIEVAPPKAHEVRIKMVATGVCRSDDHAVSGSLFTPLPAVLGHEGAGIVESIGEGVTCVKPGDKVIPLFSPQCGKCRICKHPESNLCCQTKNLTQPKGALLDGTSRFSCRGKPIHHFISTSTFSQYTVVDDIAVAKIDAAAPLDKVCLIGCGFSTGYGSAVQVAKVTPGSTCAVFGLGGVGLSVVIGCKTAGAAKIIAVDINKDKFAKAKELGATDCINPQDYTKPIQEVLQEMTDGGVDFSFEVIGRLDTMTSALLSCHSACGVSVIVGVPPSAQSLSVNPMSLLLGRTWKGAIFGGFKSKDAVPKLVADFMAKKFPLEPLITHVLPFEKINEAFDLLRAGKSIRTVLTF
T1 sequence (P00327 2-375 limits assumed): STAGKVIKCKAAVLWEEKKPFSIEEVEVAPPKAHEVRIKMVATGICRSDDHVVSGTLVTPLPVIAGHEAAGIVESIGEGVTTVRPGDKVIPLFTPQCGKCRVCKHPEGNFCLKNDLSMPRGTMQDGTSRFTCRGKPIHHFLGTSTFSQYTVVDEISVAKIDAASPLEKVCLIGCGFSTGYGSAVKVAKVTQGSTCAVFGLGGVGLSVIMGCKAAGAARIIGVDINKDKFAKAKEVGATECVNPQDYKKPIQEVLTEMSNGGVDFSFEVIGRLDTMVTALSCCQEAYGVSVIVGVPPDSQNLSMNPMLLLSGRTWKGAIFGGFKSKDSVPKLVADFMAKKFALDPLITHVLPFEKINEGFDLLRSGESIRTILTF

Ki [2, 9]	Ki [5]	Ki [6, 10]	Structure (SMILES)	effectiveness as inhibitor of alcohol metabolism (blood alcohol concentration) (ethanol metabolism [3])	Ethanol (Elimination Rate) Metabolism In Rats, % Inhibition (ethanol metabolism [7])	other results
–	–	–	CCO [ethanol]	–	–	type of inhibition [1]: competitive inhibitor; effectiveness as inhibitor ([1]; ethanol as treatment for toxic alcohol ingestion): not a very effective inhibitor
–	–	–	C[S+](C)[O-] [dimethyl sulfoxide, reference compound]	not effective as an inhibitor	–	inhibition constant with horse liver alcohol dehydrogenase ([2]; stated for comparison): four to five; effect on ethanol induced loss of righting reflex [4]: significantly "prolong the ethanol induced loss of righting reflex in mice"; inhibitory effect on alcohol metabolism ([1]; Sharkawi, Toxicology Letters 1979): some slight inhibitory effect
0.63 µM	2.2 µM	1.5 µM	CCCCC1CC[S+]([O-])C1 (stereo not shown) [3-Butyltetramethylene sulfoxide, 3-butylthiolane-1-oxide]	far superior to even tetramethylene sulfoxide	76%	–
7.5 µM	450 µM	18 µM	CC1CC[S+]([O-])C1 (stereo not shown) [3-Methyltetramethylene sulfoxide, 3-Methylthiolane-1-oxide]	far superior to even tetramethylene sulfoxide	72%	Ethanol (Elimination Rate) Metabolism In Rats, Kii (estimated) (ethanol metabolism [7]; estimated from rats given 19.6 mmoles of ethanol/kg and 0.1, 0.4, and 1.0 mmoles/kg of inhibitor): 150 µmol/kg

Structure (SMILES)	Ki [2, 9]	Ki [5]	Ki [6, 10]	effectiveness as inhibitor of alcohol metabolism (blood alcohol concentration) (ethanol metabolism [3])	Ethanol (Elimination Rate) Metabolism In Rats, % Inhibition (ethanol metabolism [7])	other results
[O-][S+]1CCCC1 [Tetramethylene Sulfoxide, tetramethylene sulfoxide]	–	1700 µM	–	far more effective	63%	Ki [2]: 19 µM; Ki [6]: 200 µM; inhibition of ethanol metabolism in animals (in words) (ethanol metabolism [7]; animals/rats): effectively inhibit ethanol metabolism in animals; Ethanol (Elimination Rate) Metabolism In Rats, Kii (ethanol metabolism [7]; intercept inhibition constant, varied concentrations of inhibitor and ethanol, blood alcohol concentrations, i.p.): 340 µmol/kg; inhibition of ethanol oxidation by isolated liver alcohol dehydrogenases (in words) [8]: exceptionally potent inhibitors
